Marks after values point to notes of the source that are not given here.
How the values were obtained:
[1] = biological target: α5β3γ2 GABAA subtype receptor (Homo sapiens, UniProt P18507+P31644); test: oocyte electrophysiology, two electrode voltage-clamp, potentiation of GABA current; type: cell-based; conditions: Xenopus oocytes, human subunits, GABA EC10; for Emax: read-out: oocyte electrophysiology maximum potentiation (%) α5β3γ2
Description: (§1) Assays are carried out as described previously in White and Gurley, 1995 and White, et al., 1995. Xenopus laevis oocytes are enzymatically isolated and injected with non-polyadenylated cRNA for human derived α, β and γ GABAA subunits, respectively. In more preferred embodiments cRNA for the α1β2γ2, α2β3γ2, α3β3γ2, and α5β3γ2 subunit combinations are injected. Only one of these subunit combinations is injected per cell. For each subunit combination, sufficient message is injected to result in current amplitudes of >10 nA when 1 μM GABA is applied. Electrophysiological recordings are carried out using the two electrode voltage-clamp technique at a membrane holding potential of −70 mV.
(§2) Compounds are evaluated against a GABA concentration that evokes <10% (EC10) of the maximal evocable GABA current. Each oocyte is exposed to increasing concentrations of compound in order to evaluate a concentration/effect relationship.
(§3) Specificity of a compound for the Ro15-1788 site is determined following completion of the concentration/effect curve. After washing the oocyte sufficiently to remove previously applied compound, the oocyte is exposed to GABA and 1 μM Ro15-1788, followed by exposure to GABA, 1 μM Ro15-1788, and compound. Percent change due to addition of compound is calculated as described above. Any percent change observed in the presence of Ro15-1788 is subtracted from the percent changes in current amplitude observed in the absence of 1 μM Ro15-1788. These net values are used for the calculation of average activity and EC50 values.
(§4) To evaluate average activity and EC50 values, the concentration/effect data are averaged across cells and fit to the logistic equation. Average values are reported as mean ±standard error.

[2] = biological target: α3β3γ2 GABAA subtype receptor (Homo sapiens, UniProt P18507+P34903); test: as above; type: cell-based; conditions: Xenopus oocytes, human subunits, GABA EC10
Sequence of α3β3γ2 GABAA subtype receptor (P34903 29-492): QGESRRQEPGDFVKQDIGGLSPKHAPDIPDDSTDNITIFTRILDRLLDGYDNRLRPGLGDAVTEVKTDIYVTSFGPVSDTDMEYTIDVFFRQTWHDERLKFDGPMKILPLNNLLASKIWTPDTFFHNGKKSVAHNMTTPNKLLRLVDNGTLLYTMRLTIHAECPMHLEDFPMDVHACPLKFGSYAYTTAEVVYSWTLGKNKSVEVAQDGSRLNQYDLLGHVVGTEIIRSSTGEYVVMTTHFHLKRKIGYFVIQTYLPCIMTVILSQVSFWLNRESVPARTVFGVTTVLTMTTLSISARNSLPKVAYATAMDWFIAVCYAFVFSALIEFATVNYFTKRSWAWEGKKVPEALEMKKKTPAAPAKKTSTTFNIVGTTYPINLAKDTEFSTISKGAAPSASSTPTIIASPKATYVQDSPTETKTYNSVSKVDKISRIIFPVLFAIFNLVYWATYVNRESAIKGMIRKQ
Sequence of α3β3γ2 GABAA subtype receptor (P28472 26-473 partner): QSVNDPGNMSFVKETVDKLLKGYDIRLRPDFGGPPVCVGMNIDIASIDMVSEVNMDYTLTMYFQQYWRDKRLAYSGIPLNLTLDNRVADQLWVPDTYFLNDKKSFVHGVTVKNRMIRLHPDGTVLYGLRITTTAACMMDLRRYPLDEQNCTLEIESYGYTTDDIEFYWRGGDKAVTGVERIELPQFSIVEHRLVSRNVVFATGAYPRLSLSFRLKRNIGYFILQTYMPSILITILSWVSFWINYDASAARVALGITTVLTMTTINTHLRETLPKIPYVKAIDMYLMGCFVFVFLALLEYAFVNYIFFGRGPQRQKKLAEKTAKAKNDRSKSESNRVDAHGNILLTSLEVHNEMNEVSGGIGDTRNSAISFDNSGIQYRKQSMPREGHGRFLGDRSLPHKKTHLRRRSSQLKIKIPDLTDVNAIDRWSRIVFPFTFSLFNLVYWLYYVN
Sequence of α3β3γ2 GABAA subtype receptor (P18507 40-475): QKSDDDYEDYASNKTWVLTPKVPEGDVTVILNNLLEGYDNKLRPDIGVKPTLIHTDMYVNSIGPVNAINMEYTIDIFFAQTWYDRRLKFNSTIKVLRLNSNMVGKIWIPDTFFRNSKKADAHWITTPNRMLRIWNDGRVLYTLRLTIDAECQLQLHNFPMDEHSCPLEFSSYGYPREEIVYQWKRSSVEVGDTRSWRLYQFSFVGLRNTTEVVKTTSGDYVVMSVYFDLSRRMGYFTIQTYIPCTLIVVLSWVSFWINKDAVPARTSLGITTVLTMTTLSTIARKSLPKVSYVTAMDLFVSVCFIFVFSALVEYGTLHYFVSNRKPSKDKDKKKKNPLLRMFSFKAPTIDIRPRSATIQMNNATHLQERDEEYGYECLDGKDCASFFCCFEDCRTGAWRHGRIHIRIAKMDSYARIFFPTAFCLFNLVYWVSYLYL
Description: as §1, §2, §3, §4

[3] = biological target: α2β3γ2 GABAA subtype receptor (Homo sapiens, UniProt P18507+P47869); test: as above; type: cell-based; conditions: Xenopus oocytes, human subunits, GABA EC10
Sequence of α2β3γ2 GABAA subtype receptor (P47869 29-451): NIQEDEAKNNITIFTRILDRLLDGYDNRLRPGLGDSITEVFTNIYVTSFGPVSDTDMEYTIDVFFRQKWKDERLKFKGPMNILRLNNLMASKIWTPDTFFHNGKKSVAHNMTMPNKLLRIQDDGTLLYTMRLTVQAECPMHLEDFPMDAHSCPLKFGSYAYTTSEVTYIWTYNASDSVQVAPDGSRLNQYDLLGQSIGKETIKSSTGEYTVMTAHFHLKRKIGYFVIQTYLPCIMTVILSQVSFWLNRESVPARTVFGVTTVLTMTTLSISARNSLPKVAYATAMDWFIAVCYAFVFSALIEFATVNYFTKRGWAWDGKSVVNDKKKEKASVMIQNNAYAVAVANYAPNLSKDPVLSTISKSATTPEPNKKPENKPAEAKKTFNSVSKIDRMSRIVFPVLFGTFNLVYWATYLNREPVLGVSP
Sequence of α2β3γ2 GABAA subtype receptor (P28472 26-473 partner): as the sequence (P28472 26-473 partner) above
Sequence of α2β3γ2 GABAA subtype receptor (P18507 40-475): as the sequence (P18507 40-475) above
Description: as §1, §2, §3, §4

[4] = biological target: α1β2γ2 GABAA subtype receptor (Homo sapiens, UniProt P14867+P18507); test: as above; type: cell-based; conditions: Xenopus oocytes, human subunits, GABA EC10; for Emax: read-out: oocyte electrophysiology maximum potentiation (%) α1β2γ2
Sequence of α1β2γ2 GABAA subtype receptor (P14867 28-456): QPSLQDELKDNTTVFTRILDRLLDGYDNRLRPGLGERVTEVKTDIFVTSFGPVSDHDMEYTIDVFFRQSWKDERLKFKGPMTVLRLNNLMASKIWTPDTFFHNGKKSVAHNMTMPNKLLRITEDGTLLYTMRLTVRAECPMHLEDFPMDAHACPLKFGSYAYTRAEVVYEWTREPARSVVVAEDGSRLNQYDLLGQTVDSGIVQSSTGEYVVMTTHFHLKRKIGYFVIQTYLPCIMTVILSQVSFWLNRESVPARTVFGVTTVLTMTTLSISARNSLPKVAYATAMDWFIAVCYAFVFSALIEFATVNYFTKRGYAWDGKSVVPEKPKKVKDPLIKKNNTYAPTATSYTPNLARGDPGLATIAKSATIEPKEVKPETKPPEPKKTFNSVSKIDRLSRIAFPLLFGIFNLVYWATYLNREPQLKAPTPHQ
Sequence of α1β2γ2 GABAA subtype receptor (P47870 25-512 partner limits assumed): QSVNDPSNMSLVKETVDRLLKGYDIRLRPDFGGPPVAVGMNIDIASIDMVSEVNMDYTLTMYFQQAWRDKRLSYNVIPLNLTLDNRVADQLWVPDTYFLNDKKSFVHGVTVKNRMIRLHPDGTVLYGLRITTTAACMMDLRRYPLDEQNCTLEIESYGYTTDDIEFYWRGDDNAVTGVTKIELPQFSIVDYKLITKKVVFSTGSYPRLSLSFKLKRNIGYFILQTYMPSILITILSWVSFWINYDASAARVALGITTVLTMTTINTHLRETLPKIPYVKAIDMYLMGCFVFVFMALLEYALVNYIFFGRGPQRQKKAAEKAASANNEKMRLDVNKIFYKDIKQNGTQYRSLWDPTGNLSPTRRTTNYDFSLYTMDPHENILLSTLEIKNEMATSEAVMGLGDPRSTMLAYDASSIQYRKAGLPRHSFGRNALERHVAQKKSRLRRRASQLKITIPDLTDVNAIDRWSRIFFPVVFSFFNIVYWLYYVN
Sequence of α1β2γ2 GABAA subtype receptor (P18507 40-475): as the sequence (P18507 40-475) above
Description: as §1, §2, §3, §4

[5] = test system: rats; test: step-down passive avoidance; type: in vivo; conditions: rat, IV, cognitive enhancement
From the text: In step-down passive avoidance a rat is placed on a platform located in the center of an electrified grid floor that is contained within a large (45 cm×45 cm×50 cm) white translucent Plexiglas® enclosure. The natural inclination of the rat is to step off the platform and investigate its surroundings. […] Each time the animal steps off the platform it receives a mild foot shock of 2 mAmps×6 sec. Following each shock the animal is removed from the box, placed in its cage for a one minute inter-trial interval, and then returned to the platform. The latency to step down on each trial, the number of trials taken to reach criterion during training and the retention latency are collected.
Testing is conducted approximately 24 hrs. after training. Drug-free animals are placed on the platform in the box in which they will have been trained and the latency to step down onto the grid floor is recorded for one trial as a measure of memory retention.

[6] = test system: bicuculline-induced seizures in rats; test: bicuculline seizure threshold test; type: in vivo; conditions: rat, compound infused 5 minutes before bicuculline
From the text: This test provides a measure of whether the test compound is proconvulsant by measuring whether the test compound produces any change in the dose of the seizure inducing drug, bicuculline, needed to elicit seizures in rats. Test compounds must show <25% decrease in seizure threshold or p>0.05 significance to be considered as drug candidates.
Adult male Sprague-Dawley rats (175-300 g) are weighed and placed in a rat restrainer. A Teflon® indwelling catheter is placed in one of the lateral tail veins and held in place with surgical tape. The catheter and a 3.0 cc syringe are connected by a length of PE-100 tubing fitted with Hamilton male and female adapter. Patency of catheter placement is tested by backflow of venous blood and ready infusion of less than 2 ml of saline solution. Animals are placed in a clear acrylic cage for behavioral observation.
The test compound is prepared in either 25% or 50% polyethylene glycol 400 (PEG) vehicle. A bicuculline (BIC) stock solution of 1.0 mg/ml BIC in 25% PEG/75% 1N HCl is also prepared. […]
Test compound is infused 5 minutes prior to the start of bicuculline infusion. […] The time elapsed from the start of bicuculline infusion to first myoclonic jerk (first head/neck twitch), the initiation of full myoclonus (writhing), and final forelimb extension is all recorded using a digital stopwatch. […]

[7] = test system: rats; test: elevated plus maze; type: in vivo; conditions: rat, IV, statistically significant response (anxiolytic effect)
Description: The elevated plus maze model capitalizes on rats' innate fear of open, elevated places. The test apparatus is an elevated plus maze consisting of two open arms and two closed arms. A rat will naturally chose to spend more time on the closed arms of the maze than on the open arms but that if an efficacious anxiolytic compound is administered to the rat prior to the test the amount it of time the rat spends in the open arms is increased.
Test compound is administered IV in a 50% PEG (polyethylene glycol) vehicle 5 minutes prior to the test session. A range of compound doses is typically used and 8-10 rats are tested at each dose. The rat is placed in the center of the maze facing one of the open arms. The animal's locomotion is tracked over a five minute test session using photocells interfaced to a computer. The computer measures the number of entries into each arm and the time spent on each arm. An anxiolytic effect in the elevated plus maze model is defined by an increase in the percentage of time spent on the open arms in compound versus vehicle treated animals.

[8] = test system: rats; test: Porsolt forced swim test; type: in vivo; conditions: rat, administered IV, statistically significant response
From the text: The effects measured in this model have been correlated to antidepressant efficacy for drugs. The paradigm of this model is that an effective antidepressant compound will cause a rat to make greater attempts to escape a water-filled cylinder than a rat given vehicle only.
Animals used in this study were non-naive male Sprague Dawley Rats (SASCO, St. Louis) weighing between 280-350 grams. The test apparatus consists of 6 clear Plexiglas cylinders 40 cm high×19 cm wide. Cylinders are filled to 18 cm with 25° C. water. Each rat is placed in a cylinder for a 15 minute training session. Following either subchronic or acute dosing of either vehicle (0.5% methylcellulose) of compound, animals are brought back 24 hours later for a 5 minute test session. These test session is videotaped for later scoring.
Subchronic dosing consists of administering drug three times in the 24-hour period between training and testing. The drug is administered 24 hrs., 5 hrs., and 1 hr. prior to the test session. Acute dosing consists of administering the drug once, 1 hour prior to the test session. Scoring is done using a time-sampling computer program written in Visual Basic and run in DOS. […] These sampling score are then converted into percentages of the test session.

[9] = test system: rats; test: spontaneous locomotor activity; type: in vivo; conditions: rat, in vivo, iv, 15 min
Description: Spontaneous locomotor activity can be measured to determine sedative effects of compounds. Locomotor activity is measured in eight computerized Digiscan-16 Animal Activity Monitors (Omnitech Electronics, Columbus, Ohio) equipped with 48 infrared photocell emitters and detectors. Each box is constructed of Plexiglas sides and floor. Horizontal activity is detected by a set of horizontal sensors on the front to back walls and a second group of sensors on the side to side walls located 5 cm above the cage floor. Vertical activity is detected by a third set of sensors on the side to side walls located 13.5 cm above the cage floor. The rats are tested in the presence of white noise (62 dB) and red St light (60 watt).
Test compound is administered IV in a 50% PEG vehicle 5 minutes prior to the test session. A range of compound doses is typically used and 6 to 8 rats are tested at each dose. The animal's movement time, vertical activity, and total distance traveled are tracked over a 15 minute test session. A sedative, or hypnotic, effect in the spontaneous locomotor activity model is defined by a decrease in any two of these three measures relative to animals given vehicle alone.

[10] = test system: rats; test: spatial water maze; type: in vivo; conditions: rat
[11] = biological target: GABAA receptors (benzodiazepine site, Ro15-1788 binding sites), rat cortex; test: Ro15-1788 competition binding assay, rat cortex membranes; conditions: displacement of 3H Ro15-1788, read-out: Ro15-1788 binding, K1
Description: Rat cortex membranes are prepared by homogenizing one or two previously frozen rat cortexes in 30 ml of 25 mM Tris Buffer, pH 7.4. The homogenate is centrifuged for 10 minutes at 500× g. The supernatant is then transferred to a clean centrifuge tube and the pellet discarded. The supernatant is spun for 20 minutes at 48,000× g. The supernatant from this spin is discarded and the pellet is resuspended in 30 ml of 25 mM Tris Buffer, pH 7.4 and centrifuged for an additional 10 minutes at 48,000× g. The supernatant from the final spin is discarded and the membrane pellet is resuspended in 100 mL Tris buffer per gram of cortex used.
The cortex membrane preparation is used to perform either percent inhibition or competition binding assays. In order to determine percent inhibition 300 μl of resuspended membranes are mixed with 200 μl ^3H labeled Ro15-1788 (final concentration 2.5 nM) and incubated for 1 hour on ice in the presence of 2 μl test compound in DMSO (final concentration 4 μM). Membranes are harvested onto untreated filtermats. The filtermats are dried and the ^3H Ro15-1788 signal is counted in a scintillation counter. Nonspecific binding is determined by displacement of ^3H Ro15-1788 with 10 μM Diazepam (RBI) or any other compound known to bind tightly at the benzodiazepine site.
K1 values are calculated according to the Cheng-Prussof equation.

Sequence of α5β3γ2 GABAA subtype receptor (P31644 32-462): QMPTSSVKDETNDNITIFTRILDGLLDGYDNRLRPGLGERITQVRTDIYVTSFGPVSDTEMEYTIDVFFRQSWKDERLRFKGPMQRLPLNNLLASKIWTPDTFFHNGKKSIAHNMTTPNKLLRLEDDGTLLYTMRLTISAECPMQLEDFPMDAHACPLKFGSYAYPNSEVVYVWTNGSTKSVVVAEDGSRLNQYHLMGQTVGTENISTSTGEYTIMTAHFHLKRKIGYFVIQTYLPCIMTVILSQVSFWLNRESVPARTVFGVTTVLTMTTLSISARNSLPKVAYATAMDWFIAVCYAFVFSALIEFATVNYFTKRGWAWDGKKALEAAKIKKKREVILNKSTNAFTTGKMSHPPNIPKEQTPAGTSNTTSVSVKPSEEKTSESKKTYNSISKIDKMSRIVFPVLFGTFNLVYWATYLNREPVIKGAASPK
Sequence of α5β3γ2 GABAA subtype receptor (P28472 26-473 partner): as the sequence (P28472 26-473 partner) above
Sequence of α5β3γ2 GABAA subtype receptor (P18507 40-475): as the sequence (P18507 40-475) above

Row | Compound | oocyte electrophysiology maximum potentiation (%) α5β3γ2 [1] | oocyte electrophysiology maximum potentiation (%) α3β3γ2 [2] | oocyte electrophysiology maximum potentiation (%) α2β3γ2 [3] | oocyte electrophysiology maximum potentiation (%) α1β2γ2 [4] | cognitive model (step-down passive avoidance), minimal efficacious dose [5] | bicuculline seizure threshold, mean percent decrease in seizure threshold over the dose range studied [6] | elevated plus maze, minimal efficacious dose [7] | Porsolt swim test, minimal efficacious dose [8] | EC50 [1] | Emax [1] | spontaneous locomotor activity, minimal efficacious dose [9] | cognitive model (spatial water maze), minimal efficacious dose ([10]; PO) | Ki [11] | Emax [4] | cognitive model (spatial water maze), minimal efficacious dose ([10]; IV)
1 | O=C1C2C=Nc3ccccc3C2=NN1c1ccccc1 (centres unmarked) [CGS 8216, reference compound] | −39% | −8% | −10% | −26% | 0.06 mg/kg | 50% |  |  |  |  |  |  |  |  | 
2 | CCOc1ccc(-n2c(=O)c3c[nH]c4ccccc4n-3c2=O)cc1 [compound 1] | 15% |  |  | 12% |  |  | 0.03 mg/kg | 20 mg/kg | 88 nM | -11% |  |  |  |  | 
3 | CCOc1ccc(NC(=O)c2c[nH]c3c2C(=O)CCC3)cc1 [compound 3] | 38% |  |  |  |  |  | 0.125 mg/kg | 20 mg/kg |  | -11% | 4 mg/kg |  |  |  | 
4 | COc1ccc(F)c(-c2ncc3[nH]c4c(c3n2)CCCC4)c1 [compound 11] |  | 36% | 21% |  |  |  |  |  |  | -22% |  | PO = 10.0^†† mg/kg | 33 nM | -11% | 
5 | O=C(Nc1ccccc1)c1c[nH]c2c1C(=O)CCCC2 [compound 13] |  | 14% | 9% |  |  |  |  |  |  | -20% |  |  | 6.3 nM | -17% | 0.125^†† mg/kg

Reference: patent US7060451B2, “Methods for screening GABA-modulatory compounds for specified pharmacological activities” (Neurogen Corporation, priority 1999, dated 2006)
